Laboratory results as given in patent publication US8840873B2, “Method of treating second and third degree burns using oxidative reductive potential water solution” (priority 2005, dated 2014).
Like-named read-outs stand apart in the source and are kept apart here.

How the values were obtained:
[1] = system: murine polychromatic erythrocytes (bone marrow); conditions: mice; for PCE/NCE ratio: intraperitoneal, cyclophosphamide 8 mg/mL, 12.5 ml/kg on day 2
Description: The mammalian in vivo micronucleus test is used for the identification of substances which cause damage to chromosomes or the mitotic apparatus of murine polychromatic erythrocytes. This damage results in the formation of “micronuclei,” intracellular structures containing lagging chromosome fragments or isolated whole chromosomes. […] The positive control mice received a single intraperitoneal injection of cyclophosphamide (8 mg/mL, 12.5 ml/kg) on day 2. All mice were observed immediately after injection for any adverse reactions. […] On day 3, all mice were weighed and terminated.
The femurs were excised from the terminated mice, the bone marrow was extracted, and duplicate smear preparations were performed for each mouse. The bone marrow slides for each animal were read at 40× magnification. The ratio of polychromatic erythrocytes (PCE) to normochromatic erythrocytes (NCE), an index of bone marrow toxicity, was determined for each mouse by counting a total of at least 200 erythrocytes. Then a minimum of 2000 scoreable PCE per mouse were evaluated for the incidence of micronucleated polychromatic erythrocytes. Statistical analysis of the data were done using the Mann and Whitney test (at 5% risk threshold) from a statistical software package (Statview 5.0, SAS Institute Inc., USA).

[2] = system: primary HDF cultures; experiment: SA-β-galactosidase expression in HDFs after chronic exposure; type: cell-based, human; conditions: 20 population doublings (one month), ORP water solution 10% or HP 5 μM
Description: The results are depicted in FIG. 6.

[3] = system: human diploid fibroblasts (HDFs); experiment: 8-OHdG DNA adducts in HDFs (ELISA); conditions: HP 500 μM
[4] = system: human diploid fibroblasts (HDFs); experiment: Cell viability, apoptosis and necrosis in HDFs by flow cytometry; conditions: for apoptosis (Annexin-V): 880 mM HP; for necrosis (cells incorporating propidium iodide) / Cell viability (7AAD): pure ORP water solution or 880 mM HP

Compound	PCE/NCE ratio ([1]; females)	number of polychromatic erythrocytes bearing micronuclei ([1]; males, intraperitoneal 12.5 ml/kg)	PCE/NCE ratio ([1]; males)	cells expressing SA-β-Gal [2] [%]	8-OHdG adducts relative to control-treated cells ([3]; 30 minutes treatment then 3 hour recovery in supplemented DMEM)	8-OHdG adducts relative to control-treated cells ([3]; 30 minutes treatment, DNA extracted right after exposure)	apoptosis (Annexin-V) ([4]; 5 min exposure) [%]	necrosis (cells incorporating propidium iodide) ([4]; 5 min exposure) [%]	Cell viability (7AAD) ([4]; 5 minute exposure) [%]	apoptosis (Annexin-V) ([4]; 30 min exposure) [%]	Cell viability (7AAD) ([4]; 30 min exposure) [%]	necrosis (cells incorporating propidium iodide) ([4]; 30 min exposure) [%]
O=P1(N(CCCl)CCCl)NCCCO1 (stereo not drawn) [cyclophosphamide]	0.73	11.0	0.77									
OO [HP, hydrogen peroxide]				86	about 5 times	about 25 fold	15	20	55	20	5	75
